Reference: patent publication US20110293745A1, “AURORA KINASE INHIBITORS” (SUNESIS PHARMACEUTICALS, INC., priority 2008, published 2011)

How the values were obtained:
[1] = tested on: phospho-histone H3 in HCT 116 cells; assay: Phospho-histone H3 staining (High Content Screening); type: cell-based; details: Homo sapiens
Protocol: Analysis of phospho-histone H3 (pHH3) levels was performed on adherent cells using high-content screening methodology. […]. This series was diluted 1000× in RPMI-1640 containing 10% FBS (1× treatment concentration: 10 μM-0.0002 μM). […].
Then, medium was aspirated and cells were incubated in 100 μL/well 4% formaldehyde for 15 min at room temperature.
[…]. […] Data were fit to an IC50 equation. […]. Cells were trypsinized, collected, lysed, and analyzed by immunoblotting.

MiaPaca2 = assay: Cell Proliferation ELISA, BrdU; type: cell-based; details: Homo sapiens, MIA PaCa-2; MiaPaca2 (Pancreatic), 96 hr
HCT116 = assay: cells; details: Homo sapiens, HCT-116, 96 h, read-out: BrdU IC50
Protocol: (§1) Cellular proliferation was assessed using the Cell Proliferation ELISA, bromodeoxyuridine (BrdU) kit (Roche) including reagents, according to the kit protocol.

MDA-MB-231 = assay: cells; details: Homo sapiens, MDA-MB-231, 96 h, read-out: BrdU IC50
Protocol: as §1

PC3 = assay: cells; details: Homo sapiens, PC-3, 96 h, read-out: BrdU IC50
Protocol: as §1

[2] = tested on: MDA-MB-231 breast cancer xenograft; assay: In vivo efficacy, mouse xenograft
Protocol: Percent TGI is then calculated with the following equation: […]
Time To Endpoint (TTE) was calculated for each individual animal to reach the predetermined study end point where the tumor volume becomes 1200 mm^3 or 10% of body weight or a greater than 20% body weight loss for two sequential measurements. The TTE is calculated and the median value is recorded for the group. Tumor Growth Delay (TGD) is then calculated with the following equation: […]
MDA-MB-231 breast cancer cells [200 μL of a 2.5×10^7 cells/mL suspension (1:1 DPBS with cells:Matrigel)] were implanted subcutaneously in the right hind flank of mice. After 13 days, when tumors reached n average volume of approximately 95 mm^3, animals were weighed, randomized by tumor volume (l×w×h×0.52), and assigned to the various study groups before initial dosing.

[3] = tested on: cleaved PARP in HCT 116 xenograft tumors; assay: PARP cleavage in tumor lysates (western blotting); type: in vivo, mouse; details: single IP dose 170 mg/kg
Protocol: (§2) PARP cleavage was measured in HCT 116 (colon carcinoma) and MV-4-11 tumor lysates by western blotting. […] HCT 116 tumors were collected 3, 6 and 12 hrs post dosing; MV-4-11 tumors were collected at 2, 6 and 24 hrs post dosing. […] Tumors were lysed in cell extraction buffer (Biosource # FNN0011) containing protease inhibitors (Sigma # P2714), and PMSF Phenylmethanesulfonyl fluoride (PMSF) [#P7626, Sigma]. Forty micrograms of protein for each sample was loaded and run on 4-12% Tris-Glycine NuPAGE gel (Invitrogen), in Novex Tris-Glycine running buffer (Invitrogen). After gel separation, proteins were electro-transferred to a PVDF membrane (Invitrogen).

[4] = tested on: cleaved PARP in MV-4-11 xenograft tumors; assay: PARP cleavage in tumor lysates (western blotting); type: in vivo, mouse; details: single IP dose 50 mg/kg or 100 mg/kg; 2, 6, 24 hrs
Protocol: as §2

[5] = Clinical serum concentration versus target threshold; type: in vivo, human; details: patients; for Duration of target serum concentration: target serum concentration 1 μM

Structure (SMILES): CS(=O)(=O)O.O=C(Nc1cccc(Cl)c1)Nc1ncc(CCNc2ncnc3ccsc23)s1 [Compound 1, 1-(3-chlorophenyl)-3-{5-[2-(thieno[3,2-d]pyrimidin-4-ylamino)ethyl]thiazo}-urea]
- EC50 ([1]; HCT 116, 1 hour treatment, read-out: EC50 of the reduction of pHH3): ~9 nM
- IC50 ([1]; HCT 116, 1 hour, pHH3 staining): 9 nM
- IC50 (MiaPaca2): 9.1 nM
- IC50 (HCT116): 6.4 nM
- IC50 (MDA-MB-231): 8.1 nM
- IC50 (PC3): 4.4 nM
- % TGI ([2]; 42.5 mg/kg biw × 3): 20.6%
- TGD ([2]; 42.5 mg/kg biw × 3): 3.5 days
- % TGI ([2]; 85 mg/kg biw × 3): 19.2%
- TGD ([2]; 85 mg/kg biw × 3): 4.0 days
- % TGI ([2]; 170 mg/kg biw × 3): 73.8%
- TGD ([2]; 170 mg/kg biw × 3): 14.1 days
- time after dose PARP cleavage is maintained [3]: at least 12 hr
- time after dose at which PARP cleavage became evident [3]: 3 h
- PARP cleavage [4]: dose- and time-dependent

Structure (SMILES): O=C(Nc1cccc(Cl)c1)Nc1ncc(CCNc2ncnc3ccsc23)s1 [Compound 2, 1-(3-chlorophenyl)-3-{5-[2-(thieno[3,2-d]pyrimidin-4-ylamino)ethyl]thiazol-2-yl}-urea]
- serum levels versus preclinical target inhibitory levels ([5]; 240 mg/m^2 dose level): exceeded the preclinical target inhibitory levels
- minimum duration target serum concentration was achieved ([5]; all dose levels): ≥ 4 h
- Duration of target serum concentration ([5]; 3-hour infusion of Compound 1, 30 mg/m^2): 4 h
- Duration of target serum concentration ([5]; 3-hour infusion of Compound 1, 60 mg/m^2): 8 h
- Duration of target serum concentration ([5]; 3-hour infusion of Compound 1, 120 mg/m^2): 10 h
- Duration of target serum concentration ([5]; 3-hour infusion of Compound 1, 240 mg/m^2): 20 h
- Duration of target serum concentration ([5]; 3-hour infusion of Compound 1, 480 mg/m^2): 20 h
